The results in this text go back to ChEMBL document CHEMBL3580654, “Tetranorsesquiterpenoids and Santalane-Type Sesquiterpenoids from Illicium lanceolatum and Their Antimicrobial Activity against the Oral Pathogen Porphyromonas gingivalis” (J Nat Prod, 2015).

Active and inactive are the calls of the source. The rule behind the calls is not given here.

Experiment [1] concerns Streptococcus parasanguinis. The experiment can be described thus: Antibacterial activity against […] ATCC 903 assessed as effect on growth at 5 to 20 ug/ml after 24 hrs by microplate reader analysis. Format: functional.
The subject of the next experiment is Streptococcus oralis. As to the kind of experiment: Antibacterial activity against Streptococcus oralis SK23 assessed as effect on growth at 5 to 20 ug/ml after 24 hrs by microplate reader analysis. Format: functional. The settings on record: ATCC 35037.
The test system of the next experiment is Streptococcus sobrinus. The experiment can be described thus: Antibacterial activity against Streptococcus sobrinus MT10186 assessed as effect on growth at 5 to 20 ug/ml after 24 hrs by microplate reader analysis. Format: functional, organism-based.
The test system of experiment [2] is Porphyromonas gingivalis. The experiment can be described thus: Antibacterial activity against Porphyromonas gingivalis ATCC 33277 assessed as growth inhibition at 5 to 20 ug/ml after 100 hrs by microplate reader analysis. Format: functional, organism-based.
In experiment [3] the test system is Streptococcus mutans. As to the kind of experiment: Antibacterial activity against Streptococcus mutans MT8148 assessed as growth inhibition at 5 to 20 ug/ml after 24 hrs by microplate reader analysis. Format: functional, organism-based.
The subject of experiment [4] is Porphyromonas gingivalis. As to the kind of experiment: Antibacterial activity against Porphyromonas gingivalis ATCC 33277 assessed as growth inhibition at 10 to 20 ug/ml after 100 hrs by microplate reader analysis. It is filed as functional, organism-based.
For experiment [5], the system named is Streptococcus mutans. As to the kind of experiment: Antibacterial activity against Streptococcus mutans MT8148 assessed as growth inhibition at 20 ug/ml after 24 hrs by microplate reader analysis. It is filed as functional, organism-based.

Consider `C=C[C@@]1(C)CC[C@]2(OC(=O)C=C2C)O1`, for which the outcome (in experiment [1]; in the experiment on Streptococcus oralis; with Streptococcus sobrinus) was inactive.

Regarding `CC(C)(O)/C=C/CC1(C)C2CC3C(C2)C31C` (stereo unspecified), the result (in experiment [1]; in the experiment with Streptococcus oralis; in the experiment with Streptococcus sobrinus) was inactive. Also, the “growth inhibition (GI)” value in the experiment on Porphyromonas gingivalis [2] and in the experiment with Streptococcus mutans [3] was “inactive” in each case.

For the compound `C=C(C)C(=O)CCC1(C)C2CC3C(C2)C31C` (stereo unspecified), the outcome (in experiment [1]; in the experiment on Streptococcus oralis; in the experiment with Streptococcus sobrinus) was inactive. For the same compound, the “growth inhibition (GI)” value in the experiment on Porphyromonas gingivalis [4] and in the experiment with Streptococcus mutans [5] was “Active” in each case.

For `CC12CC(=O)O[C@H]3CC1CC[C@]32C`, the outcome (in experiment [1]; with Streptococcus oralis; with Streptococcus sobrinus) was inactive.
